What was measured:
[1] = system: Yersinia pestis; assay: Ratio of MIC90 for Yersinia pestis KIM6-2082.1+ in iron rich PMH-D medium to MIC90 for Yersinia pestis KIM6-2082.1+ in presence of iron limiting PMH-D medium; format: functional
[2] = system: Mycobacterium tuberculosis; assay: Antimycobacterial activity against Mycobacterium tuberculosis H37Rv in presence of iron deficient GAST-D medium; format: functional, organism-based
[3] = system: Yersinia pestis; assay: Antimicrobial activity against Yersinia pestis KIM6-2082.1+ in presence of iron rich PMH-D medium; format: functional, organism-based
[4] = Cytotoxicity against human HeLa cells after 24 hrs; format: cell-based; details: read-out: CD50
[5] = system: Yersinia pestis; assay: Antimicrobial activity against Yersinia pestis KIM6-2082.1+ in presence of iron limiting PMH-D medium; format: functional, organism-based
[6] = system: Mycobacterium tuberculosis; assay: Antimycobacterial activity against Mycobacterium tuberculosis H37Rv in presence of iron rich GAST-D medium; format: functional, organism-based
[7] = molecular target: T1, AMP-binding enzyme family protein (Yersinia pestis, UniProt Q56950); assay: Inhibition of Yersinia pestis YbtE assessed as incorporation of [3H]salicyl group to HMWP2 protein
T1 sequence (Q56950 whole entry): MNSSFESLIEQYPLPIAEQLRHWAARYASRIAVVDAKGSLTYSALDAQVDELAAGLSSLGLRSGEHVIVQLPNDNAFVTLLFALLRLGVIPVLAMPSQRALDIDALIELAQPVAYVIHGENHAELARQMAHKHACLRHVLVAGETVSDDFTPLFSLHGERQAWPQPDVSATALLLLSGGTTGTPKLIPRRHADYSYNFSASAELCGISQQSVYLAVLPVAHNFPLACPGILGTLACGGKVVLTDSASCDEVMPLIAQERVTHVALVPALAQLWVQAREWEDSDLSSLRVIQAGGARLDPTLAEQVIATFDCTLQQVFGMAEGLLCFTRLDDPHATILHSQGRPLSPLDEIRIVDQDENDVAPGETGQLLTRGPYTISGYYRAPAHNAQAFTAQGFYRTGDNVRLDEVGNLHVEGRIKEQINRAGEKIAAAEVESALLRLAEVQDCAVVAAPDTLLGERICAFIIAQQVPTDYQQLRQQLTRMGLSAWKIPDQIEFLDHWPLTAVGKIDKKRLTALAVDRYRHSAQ

[8] = system: Mycobacterium tuberculosis; assay: Ratio of MIC90 for Mycobacterium tuberculosis H37Rv in iron rich GAST-D medium to MIC90 for Mycobacterium tuberculosis H37Rv in presence of iron limiting GAST-D medium; format: functional

Row | SMILES | Ratio [1] | IC50 [2] [µM] | MIC90 [2] [µM] | IC50 [3] [µM] | MIC90 [3] [µM] | CC50 at 24 h [4] [µM] | IC50 [5] [nM] | MIC90 [5] [µM] | IC50 [6] [µM] | MIC90 [6] [µM] | IC50 [7] [nM] | Ratio [8]
1 | COc1cc([C@@H]2CC(c3ccccc3O)=NN2C(=S)Nc2ccccc2)ccc1O | >30 | ≥ 500 | ≥ 500 | > 150 | > 150 | 13 | 2000 | 5 | ≥ 500 | ≥ 500 | 200 | –
2 | Cc1ccc(NC(=S)N2N=C(c3ccccc3O)C[C@H]2c2ccc(O)cc2)cc1 | >3 | ≥ 500 | ≥ 500 | > 9 | > 9 | 3 | 900 | 3 | ≥ 500 | ≥ 500 | 400 | –
3 | Oc1ccccc1C1=NN(C(=S)Nc2ccccc2)[C@H](c2ccc(Cl)cc2)C1 | >5 | ≥ 500 | ≥ 500 | > 5 | > 5 | 5 | 500 | 1 | ≥ 500 | ≥ 500 | 700 | –
4 | COc1ccc(NC(=S)N2N=C(c3ccc(O)cc3O)C[C@H]2c2ccc(O)c(OC)c2)cc1 | >9 | 125 | > 250 | > 9 | > 9 | 31 | 200 | 1 | 167 | > 250 | 1000 | –
5 | NC(=S)N1N=C(c2ccccc2O)C[C@H]1c1ccc(O)cc1 | – | 8 | 21 | > 38 | > 38 | 398 | > 38000 | > 38 | 125 | 333 | 500 | 16
6 | Oc1ccccc1C1=NN(C(=S)Nc2ccccc2)[C@H](c2ccccc2)C1 | – | ≥ 500 | ≥ 500 | > 9 | > 9 | 3 | > 9000 | > 9 | ≥ 500 | ≥ 500 | 500 | –
7 | Oc1ccc([C@@H]2CC(c3ccc(O)cc3O)=NN2C(=S)Nc2ccccc2)cc1 | >75 | 167 | > 250 | > 150 | > 150 | 63 | 1000 | 2 | > 250 | > 250 | 1000 | –
8 | Oc1ccccc1C1=NN(C(=S)Nc2ccccc2)[C@H](c2cccs2)C1 | – | – | – | – | – | – | – | – | – | – | 2000 | –
9 | COc1ccc([C@@H]2CC(c3ccccc3O)=NN2C(=S)Nc2ccccc2)cc1 | – | ≥ 500 | ≥ 500 | > 19 | > 19 | 5 | 700 | > 19 | ≥ 500 | ≥ 500 | 1000 | –
10 | Oc1ccccc1[C@@H]1CC(c2ccccc2)=NN1C(=S)Nc1ccccc1 | – | 24 | 125 | > 19 | > 19 | 19 | > 19000 | > 19 | 42 | 167 | > 12500 | 1
11 | Oc1ccc(C2=NN(C(=S)Nc3ccccc3)[C@H](c3ccc(O)cc3)C2)cc1 | – | 83 | 125 | > 75 | > 75 | 248 | > 75000 | > 75 | 105 | 250 | > 12500 | 2
12 | COc1cc([C@@H]2CC(c3ccc(O)cc3O)=NN2C(=S)Nc2ccccc2OC)ccc1O | – | 51 | 125 | > 38 | > 38 | 26 | 17000 | > 38 | 55 | 125 | 200 | 1
13 | Nc1ncnc2c1ncn2[C@@H]1O[C@H](COS(=O)(=O)NC(=O)c2ccccc2O)[C@@H](O)[C@H]1O | – | – | – | – | – | – | – | – | – | – | 7 | –
14 | COc1ccc(NC(=S)N2N=C(c3ccccc3O)C[C@H]2c2ccc(O)c(OC)c2)cc1 | >75 | ≥ 500 | ≥ 500 | > 150 | > 150 | 25 | 600 | 2 | ≥ 500 | ≥ 500 | 500 | –
15 | COc1ccccc1NC(=S)N1N=C(c2ccccc2O)C[C@H]1c1ccccc1O | >1 | ≥ 500 | ≥ 500 | > 5 | > 5 | 15 | 2000 | 5 | ≥ 500 | ≥ 500 | 800 | –
16 | Oc1ccc([C@@H]2CC(c3ccccc3O)=NN2C(=S)Nc2ccccc2)cc1 | – | 3 | 13 | > 19 | > 19 | 42 | > 19000 | > 19 | 4 | 12 | 400 | 1
17 | Oc1ccc([C@@H]2CC(c3ccccc3)=NN2C(=S)Nc2ccccc2)cc1 | – | ≥ 500 | ≥ 500 | > 38 | > 38 | 29 | > 38000 | > 38 | ≥ 500 | ≥ 500 | > 12500 | –
18 | COc1cc([C@@H]2CC(c3ccccc3O)=NN2C(=S)Nc2ccccc2OC)ccc1O | >2 | ≥ 500 | ≥ 500 | > 9 | > 9 | 11 | 1000 | 6 | ≥ 500 | ≥ 500 | 800 | –
19 | Oc1ccccc1C1=NN(C(=S)Nc2ccccc2)[C@H](c2ccccc2Cl)C1 | – | ≥ 500 | ≥ 500 | > 5 | > 5 | 5 | > 5000 | > 5 | ≥ 500 | ≥ 500 | 2000 | –
20 | COc1ccccc1[C@@H]1CC(c2ccccc2O)=NN1C(=S)Nc1ccccc1 | – | > 250 | > 250 | > 5 | > 5 | 6 | 400 | > 5 | > 250 | > 250 | 3000 | –
21 | COc1cc([C@@H]2CC(c3ccccc3O)=NN2C(=S)Nc2ccc(C)cc2)ccc1O | >10 | ≥ 500 | ≥ 500 | > 19 | > 19 | 16 | 1000 | 2 | ≥ 500 | ≥ 500 | 500 | –
22 | COc1ccc(NC(=S)N2N=C(c3ccccc3O)C[C@H]2c2ccc(O)cc2)cc1 | >10 | ≥ 500 | ≥ 500 | > 19 | > 19 | 4 | 700 | 2 | ≥ 500 | ≥ 500 | 7000 | –
23 | COc1ccccc1NC(=S)N1N=C(c2ccccc2O)C[C@H]1c1ccc(O)cc1 | >3 | ≥ 500 | ≥ 500 | > 19 | > 19 | 1 | 2000 | 6 | ≥ 500 | ≥ 500 | 300 | –
24 | CN[C@@H]1[C@H](O[C@H]2[C@H](O[C@H]3[C@H](O)[C@@H](O)[C@H](N=C(N)N)[C@@H](O)[C@@H]3N=C(N)N)O[C@@H](C)[C@]2(O)C=O)O[C@@H](CO)[C@H](O)[C@H]1O (stereo in doubt) [STREPTOMYCIN] | 1 | – | – | – | 0.2 | > 500 | – | 0.2 | – | – | – | –
25 | C[C@@H]1C[C@@H]([C@H](O)CC2CC(=O)NC(=O)C2)C(=O)[C@@H](C)C1 [CYCLOHEXIMIDE] | – | – | – | – | – | 0.1 | – | – | – | – | – | –
26 | CO[C@H]1/C=C/O[C@@]2(C)Oc3c(C)c(O)c4c(O)c(c(/C=N/N5CCN(C)CC5)c(O)c4c3C2=O)NC(=O)/C(C)=C\C=C\[C@H](C)[C@H](O)[C@@H](C)[C@@H](O)[C@@H](C)[C@H](OC(C)=O)[C@@H]1C [RIFAMPIN] | – | – | 0.008 | – | – | 190 | – | – | – | 0.008 | – | 1

— ChEMBL document CHEMBL1144812, “Small molecules with structural similarities to siderophores as novel antimicrobials against Mycobacterium tuberculosis and Yersinia pestis” (Bioorg Med Chem Lett, 2008)
